From patent publication US10323063B2, “Advanced macromolecule transduction domain (aMTD) sequences for improvement of cell-permeability, polynucleotides encoding the same, method to identify the unique features of aMTDs comprising the same, method to develop the aMTD sequences comprising the same” (CELLIVERY THERAPEUTICS, INC., priority 2014, dated 2019)

System: RAW 264.7 cells
Assay: Quantitative cell-permeability of FITC-labeled aMTD- or rPeptide-fused CRA recombinant proteins by flow cytometry
Assay type: cell-based
Details: for Relative Ratio to aMTD AVE: cell-permeability of rPeptide relative to the average of 240 aMTDs
From the text: The aMTDs and rPeptides were fluorescently labeled and compared based on the critical factors for cell-permeability by using flow cytometry and confocal laser scanning microscopy (FIG. 5 to 8). The cellular uptake of the peptide-fused non-functional cargo recombinant proteins could quantitatively be evaluated in flow cytometry, while confocal laser scanning microscopy allows intracellular uptake to be assessed visually. The analysis included recombinant proteins fused to a negative control [rP38] that has opposite characteristics (hydrophilic and aromatic sequence: YYNQSTCGGQCY) to the aMTDs (hydrophobic and aliphatic sequences). Relative cell-permeability (relative fold) of aMTDs to the negative control was also analyzed (TABLE 39 and FIG. 9).
Geometric means of negative control (histidine-tagged rP38-fused CRA recombinant protein) subtracted by that of naked protein (histidine-tagged CRA protein) lacking any peptide (rP38 or aMTD) was standardized as relative fold of 1.
For quantitative cell-permeability, the aMTD- or rPeptide-fused recombinant proteins were conjugated to fluorescein isothiocyanate (FITC) according to the manufacturer's instructions (Sigma-Aldrich, St. Louis, Mo.). RAW 264.7 cells were treated with 10 μM FITC-labeled recombinant proteins for 1 hour at 37° C., washed three times with cold PBS, treated with 0.25% tripsin/EDTA (Sigma-Aldrich, St. Louis, Mo.) for 20 minutes at 37° C. to remove cell-surface bound proteins. Cell-permeability of these recombinant proteins were analyzed by flow cytometry (Guava, Millipore, Darmstadt, Germany) using the FlowJo cytometric analysis software (FIG. 5 to 6). The relative cell-permeability of aMTDs were measured and compared with the negative control (rP38) and reference hydrophobic CPPs (MTM12 and MTD85) (TABLE 47).

[1] = cell-permeability of aMTD-fused CRA recombinant protein relative to negative control (A: rP38)
[2] = cell-permeability of aMTD-fused CRA recombinant protein relative to reference CPP (B: MTM12)
[3] = cell-permeability of aMTD-fused CRA recombinant protein relative to reference CPP (C: MTD85)
[4] = cell-permeability of aMTD-fused CRA recombinant protein relative to negative control rP38 (A type)
[5] = cell-permeability relative to reference CPP MTD85 (C type)
[6] = cell-permeability relative to reference CPP MTM12 (B type)

Substance | Relative Ratio (Fold) A [1] [Fold] | Relative Ratio (Fold) A [4] [Fold] | Relative Ratio (Fold) C [5] [Fold] | Relative Ratio (Fold) B [6] [Fold] | other results
165 (ALAVPVALAIVP; Advanced Macromolecule Transduction Domain (aMTD) Sequences for Improvement of Cell-Permeability) [compound 165] | 19.8 | – | – | – | Relative Ratio (Fold) B [2]: 13.2 Fold; Relative Ratio (Fold) C [3]: 6.7 Fold
102 (LALAPAALALLP; Advanced Macromolecule Transduction Domain (aMTD) Sequences for Improvement of Cell-Permeability) [compound 102] | – | 1.4 | 0.5 | 0.9 | –
481 (AIAIAIVPVALP; Advanced Macromolecule Transduction Domain (aMTD) Sequences for Improvement of Cell-Permeability) [compound 481] | 34.3 | – | – | – | Relative Ratio (Fold) B [2]: 23.0 Fold; Relative Ratio (Fold) C [3]: 11.6 Fold
625 (ILAAAAAPLIVP; Advanced Macromolecule Transduction Domain (aMTD) Sequences for Improvement of Cell-Permeability) [compound 625] | 20.9 | – | – | – | –
104 (AVVAAPLVLALP; Advanced Macromolecule Transduction Domain (aMTD) Sequences for Improvement of Cell-Permeability) [compound 104] | – | 7.3 | 2.5 | 4.9 | –
808 (LVVLAAAPLAVP; Advanced Macromolecule Transduction Domain (aMTD) Sequences for Improvement of Cell-Permeability) [compound 808] | – | 11.5 | 3.9 | 7.6 | –
63 (AALLVPALVAVP; Advanced Macromolecule Transduction Domain (aMTD) Sequences for Improvement of Cell-Permeability) [compound 63] | – | 1.9 | 0.7 | 1.3 | –
747 (VALLAIAPALAP; Advanced Macromolecule Transduction Domain (aMTD) Sequences for Improvement of Cell-Permeability) [compound 747] | 22.0 | – | – | – | Relative Ratio (Fold) B [2]: 14.8 Fold; Relative Ratio (Fold) C [3]: 7.5 Fold
103 (ALIAAPILALAP; Advanced Macromolecule Transduction Domain (aMTD) Sequences for Improvement of Cell-Permeability) [compound 103] | – | 2.1 | 0.7 | 1.4 | –
49 (VVPAAPAVPVVP) [compound 49] | – | – | – | – | Relative Ratio to aMTD AVE: 0.18
772 (LPVAPVIPIIVP) [compound 772] | – | – | – | – | Relative Ratio to aMTD AVE: 0.16
787 (AVALVPVIVAAP; Advanced Macromolecule Transduction Domain (aMTD) Sequences for Improvement of Cell-Permeability) [compound 787] | 29.3 | – | – | – | Relative Ratio (Fold) B [2]: 19.6 Fold; Relative Ratio (Fold) C [3]: 9.9 Fold
484 (LAVVLAAPAIVP; Advanced Macromolecule Transduction Domain (aMTD) Sequences for Improvement of Cell-Permeability) [compound 484] | 15.6 | – | – | – | –
563 (ALAVIVVPALAP; Advanced Macromolecule Transduction Domain (aMTD) Sequences for Improvement of Cell-Permeability) [compound 563] | 47.1 | – | – | – | Relative Ratio (Fold) B [2]: 31.4 Fold; Relative Ratio (Fold) C [3]: 15.9 Fold
81 (AALLPALAALLP; Advanced Macromolecule Transduction Domain (aMTD) Sequences for Improvement of Cell-Permeability) [compound 81] | – | 6.9 | 2.3 | 4.6 | –
57 (QNNCNTSSQGGG) [compound 57] | – | – | – | – | Relative Ratio to aMTD AVE: 0.06

Substance | Relative Ratio (Fold) A [1] [Fold] | Relative Ratio (Fold) A [4] [Fold] | Relative Ratio (Fold) C [5] [Fold] | Relative Ratio (Fold) B [6] [Fold] | other results
123 (AAIIVPAALLAP; Advanced Macromolecule Transduction Domain (aMTD) Sequences for Improvement of Cell-Permeability) [compound 123] | – | 2.9 | 1.0 | 2.0 | –
503 (AAIIIVLPAALP; Advanced Macromolecule Transduction Domain (aMTD) Sequences for Improvement of Cell-Permeability) [compound 503] | 17.6 | – | – | – | Relative Ratio (Fold) B [2]: 11.8 Fold; Relative Ratio (Fold) C [3]: 5.9 Fold
877 (VAIIAVPAVVAP; Advanced Macromolecule Transduction Domain (aMTD) Sequences for Improvement of Cell-Permeability) [compound 877] | 14.0 | – | – | – | Relative Ratio (Fold) B [2]: 9.4 Fold; Relative Ratio (Fold) C [3]: 4.7 Fold
101 (LVALAPVAAVLP; Advanced Macromolecule Transduction Domain (aMTD) Sequences for Improvement of Cell-Permeability) [compound 101] | – | 4.5 | 1.5 | 3.0 | –
163 (LALVLPAALAAP; Advanced Macromolecule Transduction Domain (aMTD) Sequences for Improvement of Cell-Permeability) [compound 163] | – | 4.1 | 1.4 | 2.4 | –
363 (AVLAVAPALIVP; Advanced Macromolecule Transduction Domain (aMTD) Sequences for Improvement of Cell-Permeability) [compound 363] | 14.7 | – | – | – | Relative Ratio (Fold) B [2]: 9.8 Fold; Relative Ratio (Fold) C [3]: 4.9 Fold
442 (ALAALVPAVLVP; Advanced Macromolecule Transduction Domain (aMTD) Sequences for Improvement of Cell-Permeability) [compound 442] | – | – | – | – | Relative Ratio (Fold) B [2]: 13.6 Fold
826 (LVALAAPIIAVP; Advanced Macromolecule Transduction Domain (aMTD) Sequences for Improvement of Cell-Permeability) [compound 826] | – | – | – | – | Relative Ratio (Fold) C [3]: 16.6 Fold
205 (ALALVPAIAALP; Advanced Macromolecule Transduction Domain (aMTD) Sequences for Improvement of Cell-Permeability) [compound 205] | – | 2.6 | 0.9 | 1.7 | –
42 (VAALPVVAVVAP; Advanced Macromolecule Transduction Domain (aMTD) Sequences for Improvement of Cell-Permeability) [compound 42] | – | 2.5 | 0.8 | 1.7 | –
162 (AVVALPAALIVP; Advanced Macromolecule Transduction Domain (aMTD) Sequences for Improvement of Cell-Permeability) [compound 162] | – | 8.2 | 2.8 | 5.5 | –
23 (VVLVLPAAAAVP; Advanced Macromolecule Transduction Domain (aMTD) Sequences for Improvement of Cell-Permeability) [compound 23] | – | 4.0 | 1.3 | 2.6 | –
849 (AVILLAPLIAAP; Advanced Macromolecule Transduction Domain (aMTD) Sequences for Improvement of Cell-Permeability) [compound 849] | – | – | 2.8 | – | –
164 (LAAVLPALLAAP; Advanced Macromolecule Transduction Domain (aMTD) Sequences for Improvement of Cell-Permeability) [compound 164] | – | 8.2 | 2.8 | 5.5 | –
22 (AVVLVPVLAAAP; Advanced Macromolecule Transduction Domain (aMTD) Sequences for Improvement of Cell-Permeability) [compound 22] | – | 3.1 | 1.1 | 2.1 | –
606 (AAAIAAIPIIIP) [compound 606] | – | – | – | – | Relative Ratio to aMTD AVE: 0.20
